The text below walks through data of patent US6743425B2, “Therapeutic agents for achondroplasia” (priority 2001, dated 2004).

Test [1] concerns organ cultures of tibiae from fetal mice, cultured chondrocytes and cultured osteoblasts. The following applies: cited from earlier work.
Test [2] deals with tibiae from the fetus of CNP-transgenic mice or their nontransgenic littermates. Kind of test: organ culture of embryonic tibiae (4-d culture; longitudinal length and histology). Type of test: cell-based, mouse. The following applies: cultured tibiae from nontransgenic littermates in the presence of 10^-7 M CNP. The protocol:
Tibiae from the fetus of CNP-transgenic mice or their nontransgenic littermates were dissected out on 16.5-d post coitus and cultured for 4 days in suspension in an artificial medium. To inhibit the effect of the endogenous CNP, the tibial culture was performed with a non-peptide NP receptor antagonist, HS-142-1 (Komatsu et al., Circ Res. 78:606-614, 1996) at a concentration of 50 mg/L in the medium. At the end of the culture period, the cultured tibiae were measured for their longitudinal length, and fixed and embedded for histological analysis. Sections of 5 μm in thickness were cut from the embedded specimen and stained with Alcian blue (pH 2.5) and counterstained with hematoxylin/eosin. The cGMP contents of the cultured tibiae were measured by RIA at the end of the 4-d culture period. Glycosaminoglycan synthesis of the cultured tibiae was assessed by measuring ^35SO4 incorporation (Mericq et al., Pediatr Res 47: 189-193, 2000). Namely, cultured tibiae of the CNP-transgenic mice and their nontransgenic littermates were labeled with 5 μCi/ml Na2^35SO4 (Amersham, specific activity 100 mCi/mmol) for 1 h. […] The precipitate was washed three times with 1 ml of 0.1% cetylpyridinium chloride (Sigma Chemical Co.)—0.2 M NaCl and then dissolved in 1 ml of 23 N formic acid, after which the ^35SO4 content was determined by a liquid scintillation counter.

The subject of a further test is tibiae from fetal mice. The following applies: organ cultures of tibiae from fetal mice; J. Biol. Chem. 273: 11695-11700, 1998; cited from earlier work.
The test system of test [3] is p44 and p42 MAP kinases (ERK1/2). In words: phosphorylation of ERK1/2 after basic FGF stimulation, Western blotting in ATDC cells. It is filed as cell-based, mouse. The settings on record: pretreatment for 1 h, 10^-7 CNP. The protocol:
(§1) Cells of the mouse chondrocyte strain ATDC (J. Bone. Miner. Res., 12, 1174-1188, 1997; supplied from Assistant Professor Shukunami and Professor […] of the Institute for Frontier Medical Sciences, Kyoto University) were pretreated with 1-10 ng/ml basic FGF (SIGMA), a ligand for FGFR3. Then, these cells were stimulated with 10^-9-10^-7 M CNP and assayed for intracellular cGMP production by the RIA method (cyclic GMP Assay Kit available from YAMASA CORPORATION). Phosphorylation of p44 and p42 MAP kinases (ERK1/2) and expression of […] and p44 MAP kinase (ERK1) after basic FGF stimulation were also assayed by Western blotting using phosphorylated MAP-K antibodies and MAP-K antibodies (both available from Cell Signaling Technology; MAP: mitogen-activated protein).
On the technique in general: Immunoblotting shows a protein as a band on a membrane.

Test [4] concerns mouse chondrocyte strain ATDC. Kind of test: intracellular cGMP production by RIA in ATDC cells after basic FGF pretreatment and CNP stimulation. It is filed as cell-based. The following applies: pretreatment with 1 ng/ml basic FGF for 1 h. The protocol:
as §1

Regarding C-type natriuretic peptide [CNP], the “potency in the production of cGMP compared with ANP and BNP” value in test [1] was “more potent than ANP and BNP”. In addition, in test [2], the “elongation of the cartilagenous primordia with enlarged extracellular matrix and increased size of hypertrophic chondrocytes” value is on record as “potent”. Also, the longitudinal bone growth entry in the test with tibiae from fetal mice is “significantly promotes”. Also, the “phosphorylation of ERK1/2 with basic FGF” value in test [3] is “significantly inhibited”.

For the substance basic FGF: a ligand for FGFR3 (SIGMA), the “intracellular cGMP production after CNP stimulation” value in test [4] is on record as 70 % of control.
